Several values for one entry are separate records, joined by “and”; a condition that tells them apart may be missing. Identical values can stand only once.
Biological target: T1, CDK12–cyclin K and DDB1 (Homo sapiens, UniProt Q16531+Q9NYV4, K965R)
T1 construct: His6–CDK12 (a.a. 713–1,052); full-length or beta-propeller B domain deletion (ΔBPB: a.a. 396–705 deleted) constructs of His6–DDB1ΔBPB, StrepII–Avi–DDB1, or His6–Spy–DDB1; made in house; host or cells: Trichoplusia ni High Five insect cells (baculovirus)
T1 sequence (Q9NYV4 713-1052 K965R): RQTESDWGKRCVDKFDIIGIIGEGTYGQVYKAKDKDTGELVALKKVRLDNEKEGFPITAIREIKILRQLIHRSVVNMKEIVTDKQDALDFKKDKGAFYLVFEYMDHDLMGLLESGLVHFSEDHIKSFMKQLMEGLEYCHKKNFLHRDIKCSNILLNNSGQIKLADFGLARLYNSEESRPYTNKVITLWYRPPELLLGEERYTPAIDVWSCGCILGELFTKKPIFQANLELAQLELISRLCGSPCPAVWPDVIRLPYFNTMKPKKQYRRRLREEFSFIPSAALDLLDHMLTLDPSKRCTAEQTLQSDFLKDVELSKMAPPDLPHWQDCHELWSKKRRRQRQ
T1 sequence (O75909 1-267 partner): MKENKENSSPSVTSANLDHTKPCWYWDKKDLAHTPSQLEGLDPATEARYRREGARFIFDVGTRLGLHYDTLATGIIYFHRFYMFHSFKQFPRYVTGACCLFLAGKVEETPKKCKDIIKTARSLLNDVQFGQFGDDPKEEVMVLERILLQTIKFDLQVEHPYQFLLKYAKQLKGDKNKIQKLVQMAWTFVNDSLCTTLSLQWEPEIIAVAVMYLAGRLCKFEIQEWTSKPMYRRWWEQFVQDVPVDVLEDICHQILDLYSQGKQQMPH
T1 sequence (Q16531 whole entry): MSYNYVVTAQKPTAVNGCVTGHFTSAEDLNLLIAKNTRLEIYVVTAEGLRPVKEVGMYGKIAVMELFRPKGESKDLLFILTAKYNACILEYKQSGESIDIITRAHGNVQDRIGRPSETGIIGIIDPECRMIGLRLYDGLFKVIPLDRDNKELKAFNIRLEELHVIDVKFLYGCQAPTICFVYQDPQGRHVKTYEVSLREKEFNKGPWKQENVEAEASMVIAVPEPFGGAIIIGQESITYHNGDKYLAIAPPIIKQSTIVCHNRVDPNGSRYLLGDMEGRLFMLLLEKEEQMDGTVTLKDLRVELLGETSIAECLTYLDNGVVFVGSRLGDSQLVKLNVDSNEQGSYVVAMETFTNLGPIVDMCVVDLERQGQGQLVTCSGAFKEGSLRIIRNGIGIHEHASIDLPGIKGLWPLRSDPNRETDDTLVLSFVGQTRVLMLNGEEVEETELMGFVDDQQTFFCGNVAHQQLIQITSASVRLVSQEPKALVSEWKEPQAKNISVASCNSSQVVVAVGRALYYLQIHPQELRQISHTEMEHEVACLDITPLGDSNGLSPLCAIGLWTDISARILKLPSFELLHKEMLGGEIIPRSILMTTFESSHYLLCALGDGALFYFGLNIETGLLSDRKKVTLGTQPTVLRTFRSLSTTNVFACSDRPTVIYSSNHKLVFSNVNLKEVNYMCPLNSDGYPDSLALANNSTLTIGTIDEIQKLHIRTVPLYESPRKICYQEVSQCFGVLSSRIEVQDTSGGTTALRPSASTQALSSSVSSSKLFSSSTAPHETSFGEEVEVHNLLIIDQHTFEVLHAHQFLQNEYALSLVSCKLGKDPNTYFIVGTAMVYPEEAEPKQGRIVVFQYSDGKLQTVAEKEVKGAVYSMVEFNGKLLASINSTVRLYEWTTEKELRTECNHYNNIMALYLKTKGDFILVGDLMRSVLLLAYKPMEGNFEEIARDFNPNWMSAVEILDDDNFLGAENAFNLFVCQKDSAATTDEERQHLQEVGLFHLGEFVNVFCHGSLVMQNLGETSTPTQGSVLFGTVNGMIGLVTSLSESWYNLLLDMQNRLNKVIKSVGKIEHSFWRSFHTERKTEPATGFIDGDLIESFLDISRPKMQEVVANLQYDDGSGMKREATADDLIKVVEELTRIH
Assay: TR-FRET ternary complex formation assay (compound titration)
Format: binding
Conditions: for TR-FRET signal at compound concentration: replicate titrations
Summary of the method: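 Delayed (70 μs) time-resolved read; FRET computed as 520 nm over 490 nm emission.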

[1] = compound concentration 0.468 nM
[2] = compound concentration 7.92001 nM
[3] = compound concentration 15.84 nM
[4] = compound concentration 30.96 nM

For `CCC(CO)Nc1nc(NCc2ccc(-c3ccccn3)cc2)c2ncn(C(C)C)c2n1` (stereo not drawn) [CR8, reference compound], the “TR-FRET signal, individual replicate” value [1] was 0.3192 and 0.333 and 0.3266 and 0.1622 and 0.1822 and 0.1545 and 0.1541, the “TR-FRET signal at compound concentration 0.468 nM” value (compound concentration 0.468 nM, raw replicate titration data) was 0.3192 and 0.333 and 0.3266 and 0.1622 and 0.1822 and 0.1545 and 0.1541 and 0.2195 and 0.2132 and 0.1986 and 0.2005 and 0.1618 and 0.1794 and 0.2366 and 0.2374 and 0.2769 and 0.2739 and 0.31 and the “TR-FRET signal at compound concentration 0.468 nM” value (compound concentration 0.468 nM, raw titration data) was 0.3192 and 0.333 and 0.3266 and 0.1622 and 0.1822 and 0.1545 and 0.1541 and 0.2195 and 0.2132 and 0.1986 and 0.2005 and 0.1618 and 0.1794 and 0.2366 and 0.2374 and 0.2769 and 0.2739 and 0.31. The “TR-FRET signal at compound concentration” value [1] was 0.3192 and 0.333 and 0.3266 and 0.1622 and 0.1822 and 0.1545 and 0.1541, the “TR-FRET signal, individual replicate” value (compound concentration 2.16 nM) was 0.4573 and 0.4311 and 0.4305 and 0.2659 and 0.27 and 0.2373 and 0.2241 and the “TR-FRET signal at compound concentration 2.16 nM” value (compound concentration 2.16 nM, raw replicate titration data) was 0.4573 and 0.4311 and 0.4305 and 0.2659 and 0.27 and 0.2373 and 0.2241 and 0.3119 and 0.3007 and 0.2892 and 0.2693 and 0.2407 and 0.2691 and 0.3343 and 0.3434 and 0.3949 and 0.3941 and 0.4244. For the same compound, the “TR-FRET signal at compound concentration 2.16 nM” value (compound concentration 2.16 nM, raw titration data) was 0.4573 and 0.4311 and 0.4305 and 0.2659 and 0.27 and 0.2373 and 0.2241 and 0.3119 and 0.3007 and 0.2892 and 0.2693 and 0.2407 and 0.2691 and 0.3343 and 0.3434 and 0.3949 and 0.3941 and 0.4244, the “TR-FRET signal at compound concentration” value (compound concentration 2.16 nM) was 0.4573 and 0.4311 and 0.4305 and 0.2659 and 0.27 and 0.2373 and 0.2241 and the “TR-FRET signal, individual replicate” value (compound concentration 3.6 nM) was 0.7291 and 0.6022 and 0.6555 and 0.4637 and 0.4981 and 0.4299 and 0.4143 and 0.532. For the same compound, the “TR-FRET signal at compound concentration 3.6 nM” value (compound concentration 3.6 nM, raw replicate titration data) was 0.7291 and 0.6022 and 0.6555 and 0.4637 and 0.4981 and 0.4299 and 0.4143 and 0.532 and 0.5274 and 0.5046 and 0.4937 and 0.4479 and 0.5082 and 0.5733 and 0.5902 and 0.6794 and 0.6674 and 0.7173, the “TR-FRET signal at compound concentration 3.6 nM” value (compound concentration 3.6 nM, raw titration data) was 0.7291 and 0.6022 and 0.6555 and 0.4637 and 0.4981 and 0.4299 and 0.4143 and 0.532 and 0.5274 and 0.5046 and 0.4937 and 0.4479 and 0.5082 and 0.5733 and 0.5902 and 0.6794 and 0.6674 and 0.7173 and the “TR-FRET signal at compound concentration” value (compound concentration 3.6 nM) was 0.7291 and 0.6022 and 0.6555 and 0.4637 and 0.4981 and 0.4299 and 0.4143 and 0.532. For the same compound, the “TR-FRET signal, individual replicate” value [2] was 1.345 and 0.9894 and 0.9813 and 0.8825 and 0.9549 and 0.8747 and 0.8749 and 0.9605, the “TR-FRET signal at compound concentration 7.92001 nM” value (compound concentration 7.92001 nM, raw replicate titration data) was 1.345 and 0.9894 and 0.9813 and 0.8825 and 0.9549 and 0.8747 and 0.8749 and 0.9605 and 0.982 and 0.9498 and 0.9487 and 0.89 and 1.021 and 1.066 and 1.149 and 1.341 and 1.311 and 1.1731 and the “TR-FRET signal at compound concentration 7.92001 nM” value (compound concentration 7.92001 nM, raw titration data) was 1.345 and 0.9894 and 0.9813 and 0.8825 and 0.9549 and 0.8747 and 0.8749 and 0.9605 and 0.982 and 0.9498 and 0.9487 and 0.89 and 1.021 and 1.066 and 1.149 and 1.341 and 1.311 and 1.1731. The “TR-FRET signal at compound concentration” value [2] was 1.345 and 0.9894 and 0.9813 and 0.8825 and 0.9549 and 0.8747 and 0.8749 and 0.9605, the “TR-FRET signal, individual replicate” value [3] was 2.359 and 1.808 and 1.67 and 1.71 and 1.978 and 1.839 and 1.833 and 1.762 and the “TR-FRET signal at compound concentration 15.84 nM” value (compound concentration 15.84 nM, raw replicate titration data) was 2.359 and 1.808 and 1.67 and 1.71 and 1.978 and 1.839 and 1.833 and 1.762 and 1.792 and 1.805 and 1.852 and 1.758 and 1.925 and 1.999 and 2.166 and 2.456 and 2.406 and 2.268. The “TR-FRET signal at compound concentration 15.84 nM” value (compound concentration 15.84 nM, raw titration data) was 2.359 and 1.808 and 1.67 and 1.71 and 1.978 and 1.839 and 1.833 and 1.762 and 1.792 and 1.805 and 1.852 and 1.758 and 1.925 and 1.999 and 2.166 and 2.456 and 2.406 and 2.268, the “TR-FRET signal at compound concentration” value [3] was 2.359 and 1.808 and 1.67 and 1.71 and 1.978 and 1.839 and 1.833 and 1.762 and the “TR-FRET signal, individual replicate” value [4] was 3.429 and 2.93 and 2.851 and 3.1006 and 3.279 and 3.156 and 3.142 and 2.862. For the same compound, the “TR-FRET signal at compound concentration 30.96 nM” value (compound concentration 30.96 nM, raw replicate titration data) was 3.429 and 2.93 and 2.851 and 3.1006 and 3.279 and 3.156 and 3.142 and 2.862 and 2.958 and 2.99 and 2.943 and 2.896 and 3.197 and 3.095 and 3.319 and 3.517 and 3.418 and 3.349, the “TR-FRET signal at compound concentration 30.96 nM” value (compound concentration 30.96 nM, raw titration data) was 3.429 and 2.93 and 2.851 and 3.1006 and 3.279 and 3.156 and 3.142 and 2.862 and 2.958 and 2.99 and 2.943 and 2.896 and 3.197 and 3.095 and 3.319 and 3.517 and 3.418 and 3.349 and the “TR-FRET signal at compound concentration” value [4] was 3.429 and 2.93 and 2.851 and 3.1006 and 3.279 and 3.156 and 3.142 and 2.862.

— paper PMC10746543, “Design principles for cyclin K molecular glue degraders” (Nature Chemical Biology, 2023)
